Results reported in patent US7553864B2, “Compounds for the treatment of inflammatory disorders and microbial diseases” (Schering Corporation, priority 2005, dated 2009).

System: LpxC enzyme
Test: LpxC enzyme assay (RapidFire high-throughput mass spectrometry)
Format: biochemical
Method: The standard LpxC assay consists of 0.2 nM LpxC enzyme, 1.0 μM UDP-3-O—(R-3-hydroxymyristoyl)-N-acetylglucosamine, and test compound, in assay buffer and 2% DMSO. Assay buffer is comprised of 25 mM HEPES, pH 7.3, 150 mM NaCl, 2.0 mM DTT, and 0.01% BSA. The enzyme reaction is carried out in a 96-well assay plate, in a final volume of 102 μL. Solutions of test compounds are prepared in 100% DMSO. Reaction additions, in order, are (1) 2.0 μL compound solution, (2) 80 μL of assay buffer, (3) 10 μL of 10 μM UDP-3-O—(R-3-hydroxymyristoyl)-N-acetylglucosamine (in assay buffer) and, (4) 10 μL of LpxC enzyme (20 nM in assay buffer) to initiate the reaction. In positive control reactions, addition (1) has 2.0 μL of 100% DMSO (without compound); these reactions are used as the total signal (TSB) value. Reactions are incubated at room temperature for 60 minutes when 10 μL of 1 N HCl is added to stop the reaction. The plate is shaken by hand for 10 seconds to ensure complete quenching. Assay plates are sealed with foil tape, and stored at −80° C. for 24-48 hr prior to analysis.
The concentrations of substrate and product in the reaction mixtures are determined with BioTrove's proprietary RapidFire™ high-throughput mass spectrometry (HTMS). Assay mixtures are partially purified with reverse phase chromatography, where they are washed with water containing 5 mM ammonium formate and eluted onto the mass spectrometer in 80% acetonitrile, 20% water, and 5 mM ammonium formate. The mass spectrometry peak areas of the substrate and product are measured to determine the concentration of these analytes. The assay signal is the percentage of substrate that is converted to product. Percent inhibition, % I, in test samples is determined from the following equation: […]

[1] = concentration 0.10 (unit not given)
[2] = concentration 0.20 (unit not given)
[3] = concentration 0.39 (unit not given)
[4] = concentration 0.78 (unit not given)
[5] = concentration 1.56 (unit not given)
[6] = concentration 3.13 (unit not given)
[7] = concentration 6.25 (unit not given)
[8] = concentration 12.50 (unit not given)
[9] = concentration 25 (unit not given)
[10] = concentration 50 (unit not given)

CNC(=O)[C@H](O)[C@@H](O)C(=O)Nc1ccc(C#Cc2ccccc2)cc1 [Compound 25]
LpxC enzyme assay rating (% inhibition at indicated concentrations) [1]: C (less than 10% inhibition) | LpxC enzyme assay rating (% inhibition at indicated concentrations) [2]: C (less than 10% inhibition) | LpxC enzyme assay rating (% inhibition at indicated concentrations) [3]: C (less than 10% inhibition) | LpxC enzyme assay rating (% inhibition at indicated concentrations) [4]: C (less than 10% inhibition) | LpxC enzyme assay rating (% inhibition at indicated concentrations) [5]: C (less than 10% inhibition) | LpxC enzyme assay rating (% inhibition at indicated concentrations) [6]: C (less than 10% inhibition) | LpxC enzyme assay rating (% inhibition at indicated concentrations) [7]: C (less than 10% inhibition) | LpxC enzyme assay rating (% inhibition at indicated concentrations) [8]: B (10-30% inhibition) | LpxC enzyme assay rating (% inhibition at indicated concentrations) [9]: C (less than 10% inhibition) | LpxC enzyme assay rating (% inhibition at indicated concentrations) [10]: C (less than 10% inhibition)

CNC(=O)[C@H](O)[C@@H](O)C(=O)n1ccc2cc(C#Cc3ccccc3)ccc21 [Compound 26]
LpxC enzyme assay rating (% inhibition at indicated concentrations) [1]: C (less than 10% inhibition) | LpxC enzyme assay rating (% inhibition at indicated concentrations) [2]: C (less than 10% inhibition) | LpxC enzyme assay rating (% inhibition at indicated concentrations) [3]: C (less than 10% inhibition) | LpxC enzyme assay rating (% inhibition at indicated concentrations) [4]: C (less than 10% inhibition) | LpxC enzyme assay rating (% inhibition at indicated concentrations) [5]: C (less than 10% inhibition) | LpxC enzyme assay rating (% inhibition at indicated concentrations) [6]: C (less than 10% inhibition) | LpxC enzyme assay rating (% inhibition at indicated concentrations) [7]: C (less than 10% inhibition) | LpxC enzyme assay rating (% inhibition at indicated concentrations) [8]: B (10-30% inhibition) | LpxC enzyme assay rating (% inhibition at indicated concentrations) [9]: C (less than 10% inhibition) | LpxC enzyme assay rating (% inhibition at indicated concentrations) [10]: B (10-30% inhibition)

CNC(=O)[C@H](O)[C@@H](O)C(=O)Nc1ccc(-c2ccccc2)cc1 [Compound 27]
LpxC enzyme assay rating (% inhibition at indicated concentrations) [1]: C (less than 10% inhibition) | LpxC enzyme assay rating (% inhibition at indicated concentrations) [2]: C (less than 10% inhibition) | LpxC enzyme assay rating (% inhibition at indicated concentrations) [3]: C (less than 10% inhibition) | LpxC enzyme assay rating (% inhibition at indicated concentrations) [4]: C (less than 10% inhibition) | LpxC enzyme assay rating (% inhibition at indicated concentrations) [5]: C (less than 10% inhibition) | LpxC enzyme assay rating (% inhibition at indicated concentrations) [6]: B (10-30% inhibition) | LpxC enzyme assay rating (% inhibition at indicated concentrations) [7]: B (10-30% inhibition) | LpxC enzyme assay rating (% inhibition at indicated concentrations) [8]: B (10-30% inhibition) | LpxC enzyme assay rating (% inhibition at indicated concentrations) [9]: B (10-30% inhibition) | LpxC enzyme assay rating (% inhibition at indicated concentrations) [10]: B (10-30% inhibition)

CNC(=O)[C@H](O)[C@@H](O)C(=O)Nc1ccc(-c2ccc(C(F)(F)F)cc2)cc1 [Compound 28]
LpxC enzyme assay rating (% inhibition at indicated concentrations) [1]: C (less than 10% inhibition) | LpxC enzyme assay rating (% inhibition at indicated concentrations) [2]: C (less than 10% inhibition) | LpxC enzyme assay rating (% inhibition at indicated concentrations) [3]: C (less than 10% inhibition) | LpxC enzyme assay rating (% inhibition at indicated concentrations) [4]: C (less than 10% inhibition) | LpxC enzyme assay rating (% inhibition at indicated concentrations) [5]: C (less than 10% inhibition) | LpxC enzyme assay rating (% inhibition at indicated concentrations) [6]: C (less than 10% inhibition) | LpxC enzyme assay rating (% inhibition at indicated concentrations) [7]: C (less than 10% inhibition) | LpxC enzyme assay rating (% inhibition at indicated concentrations) [8]: B (10-30% inhibition) | LpxC enzyme assay rating (% inhibition at indicated concentrations) [9]: C (less than 10% inhibition) | LpxC enzyme assay rating (% inhibition at indicated concentrations) [10]: C (less than 10% inhibition)

CNC(=O)[C@H](O)[C@@H](O)C(=O)N1CCN(c2cccc3ccccc23)CC1 [Compound 29]
LpxC enzyme assay rating (% inhibition at indicated concentrations) [1]: C (less than 10% inhibition) | LpxC enzyme assay rating (% inhibition at indicated concentrations) [2]: C (less than 10% inhibition) | LpxC enzyme assay rating (% inhibition at indicated concentrations) [3]: C (less than 10% inhibition) | LpxC enzyme assay rating (% inhibition at indicated concentrations) [4]: C (less than 10% inhibition) | LpxC enzyme assay rating (% inhibition at indicated concentrations) [5]: B (10-30% inhibition) | LpxC enzyme assay rating (% inhibition at indicated concentrations) [6]: B (10-30% inhibition) | LpxC enzyme assay rating (% inhibition at indicated concentrations) [7]: B (10-30% inhibition) | LpxC enzyme assay rating (% inhibition at indicated concentrations) [8]: B (10-30% inhibition) | LpxC enzyme assay rating (% inhibition at indicated concentrations) [9]: B (10-30% inhibition) | LpxC enzyme assay rating (% inhibition at indicated concentrations) [10]: B (10-30% inhibition)
